Like-named read-outs stand apart in the source and are kept apart here.
Assays:
Experiment in all cases: minimum growth inhibitory concentration (MIC) method
Format in all cases: cell-based
[1] = test system: Klebsiella pneumoniae (Horino); conditions: K. pneumoniae Horino, HIA medium, 37° C., 18 hours, sodium salts
Procedure: (§1) The antibacterial activities of the cephalosporins of this invention were measured using the sodium salts of the compounds obtained in Synthesis Examples 1 and 2. The procedure and the results are shown in Referential Example 1.
(§2) Carbenicillin sodium salt (CB-PC) and cephazoline sodium salt (CEZ) were used as controls.
(§3) The antibacterial activities of the test compounds against various Gram-positive and Gram-negative bacteria were determined in a customary manner by the minimum growth inhibitory concentration method (MIC method).
(§4) A commercially available heart infusion agar medium (to be abbreviated HIA medium) was used as an assay medium, and a commercially available trypto-soy bouillon medium (to be abbreviated TSB) was used as a medium for the growth of test bacterial strains.
(§5) The test compound was diluted with the melted HIA medium to 100 μg/ml as a maximum concentration, and then serially diluted double. The dilutions were poured into sterilized Petri dishes respectively and allowed to cool and solidify to prepare plates containing the test compound.
(§6) The test bacterial strain was cultivated at 37° C. for 18 to 24 hours in the TSB medium. The culture broth was diluted to 50 to 500 times with a freshly prepared TSB culture medium, and one platinum loopful of the dilution was inoculated in each of the plates containing the test compound. The plate was incubated at 37° C. for 18 hours, and the state of growth of the strain on the plate was observed, and the minimum growth inhibitory concentration (MIC) of the test compound was determined.

[2] = test system: Pseudomonas aeruginosa (718); conditions: P. aeruginosa 718, HIA medium, 37° C., 18 hours, sodium salts
Procedure: as §1, §2, §3, §4, §5, §6

[3] = test system: Pseudomonas aeruginosa (395); conditions: P. aeruginosa 395, HIA medium, 37° C., 18 hours, sodium salts
Procedure: as §1, §2, §3, §4, §5, §6

[4] = test system: Enterobacter cloacae (D-49); conditions: HIA medium, 37° C., 18 hours, sodium salts
Procedure: as §1, §2, §3, §4, §5, §6

[5] = test system: Klebsiella pneumoniae (ATCC 10031); conditions: ATCC10031, K. pneumoniae ATCC 10031, HIA medium, 37° C., 18 hours, sodium salts, read-out: Minimum growth inhibitory concentration
Procedure: as §1, §2, §3, §4, §5, §6

[6] = test system: Shigella flexneri (K-A); conditions: HIA medium, 37° C., 18 hours, sodium salts
Procedure: as §1, §2, §3, §4, §5, §6

[7] = test system: Pseudomonas Maltophilia (F-6257); conditions: Stenotrophomonas maltophilia, HIA medium, 37° C., 18 hours, sodium salts
Procedure: as §1, §2, §3, §4, §5, §6

[8] = test system: Proteus morganii (C-39); conditions: Morganella morganii, HIA medium, 37° C., 18 hours, sodium salts
Procedure: as §1, §2, §3, §4, §5, §6

[9] = test system: Streptococcus faecalis (Hoshi); conditions: Enterococcus faecalis, HIA medium, 37° C., 18 hours, sodium salts
Procedure: as §1, §2, §3, §4, §5, §6

[10] = test system: Enterobacter aerogenes (IFO 3320); conditions: Klebsiella aerogenes, read-out: Minimum growth inhibitory concentration
Procedure: as §1, §2, §3, §4, §5, §6

[11] = test system: Escherichia coli (26R03); conditions: E. coli 26R03, HIA medium, 37° C., 18 hours, sodium salts
Procedure: as §1, §2, §3, §4, §5, §6

[12] = test system: Escherichia coli (14H114); conditions: E. coli 14H114, HIA medium, 37° C., 18 hours, sodium salts
Procedure: as §1, §2, §3, §4, §5, §6

[13] = test system: Pseudomonas aeruginosa (S-1); conditions: P. aeruginosa S-1, HIA medium, 37° C., 18 hours, sodium salts
Procedure: as §1, §2, §3, §4, §5, §6

[14] = test system: Escherichia coli (NIHJ); conditions: E. coli NIHJ, HIA medium, 37° C., 18 hours, sodium salts
Procedure: as §1, §2, §3, §4, §5, §6

[15] = test system: Staphylococcus aureus (FDA 209P); conditions: FDA209P, read-out: Minimum growth inhibitory concentration
Procedure: as §1, §2, §3, §4, §5, §6

[16] = test system: Pseudomonas aeruginosa (NCTC 7244); conditions: NCTC7244, P. aeruginosa NCTC 7244, HIA medium, 37° C., 18 hours, sodium salts
Procedure: as §1, §2, §3, §4, §5, §6

[17] = test system: Bacillus cereus (IAM 1792); conditions: IAM1792, HIA medium, 37° C., 18 hours, sodium salts
Procedure: as §1, §2, §3, §4, §5, §6

[18] = test system: Escherichia coli (K-12); conditions: E. coli K-12, HIA medium, 37° C., 18 hours, sodium salts
Procedure: as §1, §2, §3, §4, §5, §6

[19] = test system: Staphylococcus aureus (Y-8); conditions: S. aureus Y-8, HIA medium, 37° C., 18 hours, sodium salts
Procedure: as §1, §2, §3, §4, §5, §6

[20] = test system: Pseudomonas aeruginosa (IFO-3901); conditions: IFO3901, P. aeruginosa IFO-3901, HIA medium, 37° C., 18 hours, sodium salts
Procedure: as §1, §2, §3, §4, §5, §6

[21] = test system: Pseudomonas aeruginosa (F1629); conditions: P. aeruginosa F1629, HIA medium, 37° C., 18 hours, sodium salts
Procedure: as §1, §2, §3, §4, §5, §6

[22] = test system: Proteus rettgeri (T-2); conditions: Providencia rettgeri, HIA medium, 37° C., 18 hours, sodium salts
Procedure: as §1, §2, §3, §4, §5, §6

[23] = test system: Proteus vulgaris (OX-19); conditions: Proteus vulgaris OX-19; HIA medium, 37° C., 18 hours; sodium salts; read-out: Minimum growth inhibitory concentration
Procedure: as §1, §2, §3, §4, §5, §6

[24] = test system: Salmonella enteritidis (KB-21); conditions: Salmonella enterica, read-out: Minimum growth inhibitory concentration
Procedure: as §1, §2, §3, §4, §5, §6

[25] = test system: Pseudomonas aeruginosa (ATCC 10145); conditions: ATCC10145, P. aeruginosa ATCC 10145, HIA medium, 37° C., 18 hours, sodium salts
Procedure: as §1, §2, §3, §4, §5, §6

[26] = test system: Klebsiella pneumoniae (B-172); conditions: K. pneumoniae B-172, HIA medium, 37° C., 18 hours, sodium salts
Procedure: as §1, §2, §3, §4, §5, §6

[27] = test system: Citrobacter freundii (F-34); conditions: HIA medium, 37° C., 18 hours, sodium salts
Procedure: as §1, §2, §3, §4, §5, §6

For `Cn1nnnc1SCC1=C(C(=O)O)N2C(=O)C(NC(=O)[C@H](NC(=O)c3cnc4c(c3O)C(=O)CCC4)c3ccccc3)C2SC1` (single isomer, unassigned) [Synthesis Example 1, 7-[D-(-)-α-(4-hydroxy-5-oxo-5,6,7,8-tetrahydroquinoline-3-carboxamide)phenylacetamido)-3-[[(1-methyl-1H-tetrazol-5-yl)thio]methyl]-Δ^3-cephem-4-carboxylic acid], the MIC [1] was 1.56 µg/mL, the MIC [2] was 12.5 µg/mL and the MIC [3] was 3.13 µg/mL. For the same compound, the MIC [4] was 6.25 µg/mL, the MIC [5] was 0.2 µg/mL and the MIC [6] was 0.2 µg/mL. For the same compound, the MIC [7] was 3.13 µg/mL, the MIC [8] was 3.13 µg/mL and the MIC [9] was 25 µg/mL. The MIC ([10]; IFO3320, Enterobacter aerogenes IFO 3320, HIA medium, 37° C., 18 hours, sodium salts) was 0.2 µg/mL, the MIC [11] was 1.56 µg/mL and the MIC [12] was 6.25 µg/mL. For the same compound, the MIC [13] was 1.56 µg/mL, the MIC [14] was 0.78 µg/mL and the MIC ([15]; S. aureus FDA 209P, HIA medium, 37° C., 18 hours, sodium salts) was 1.56 µg/mL. It also gave an MIC [16] of 12.5 µg/mL, an MIC [17] of 25 µg/mL and an MIC [18] of 0.78 µg/mL. It also gave an MIC [19] of 3.13 µg/mL, an MIC [20] of 12.5 µg/mL and an MIC [21] of 6.25 µg/mL. The MIC [22] was 1.56 µg/mL, the MIC [23] was 1.56 µg/mL and the MIC ([24]; Salmonella enteritidis KB-21, HIA medium, 37° C., 18 hours, sodium salts) was 0.78 µg/mL. The MIC [25] was 12.5 µg/mL, the MIC [26] was 0.78 µg/mL and the MIC [27] was 0.78 µg/mL.
In the case of `CC1(C)S[C@@H]2[C@H](NC(=O)C(C(=O)O)c3ccccc3)C(=O)N2[C@H]1C(=O)O` (stereo partly drawn) [CB-PC, disodium-α-carboxybenzyl penicillin, reference compound], the MIC [1] is reported as 100 µg/mL, the MIC [2] is reported as greater than 100 µg/mL and the MIC [3] is reported as 25 µg/mL. For the same compound, the MIC [4] was greater than 100 µg/mL, the MIC [5] was greater than 100 µg/mL and the MIC [6] was 1.56 µg/mL. It also gave an MIC [7] of 25 µg/mL, an MIC [8] of 6.25 µg/mL and an MIC [9] of 50 µg/mL. For the same compound, the MIC ([10]; IFO3320, 18 h) was 1.56 µg/mL, the MIC [11] was 3.13 µg/mL and the MIC [12] was greater than 100 µg/mL. The MIC [13] was 25 µg/mL, the MIC [14] was 6.25 µg/mL and the MIC ([15]; 18 h) was 1.56 µg/mL. For the same compound, the MIC [16] was 100 µg/mL, the MIC [17] was 100 µg/mL and the MIC [18] was 6.25 µg/mL. For the same compound, the MIC [19] was 12.5 µg/mL, the MIC [20] was 100 µg/mL and the MIC [21] was greater than 100 µg/mL. For the same compound, the MIC [22] was 3.13 µg/mL, the MIC [23] was 6.25 µg/mL and the MIC ([24]; ENTERITIDIS, 18 h) was 1.56 µg/mL. For the same compound, the MIC [25] was greater than 100 µg/mL, the MIC [26] was 25 µg/mL and the MIC [27] was 3.13 µg/mL.
